{"source": "ChEMBL document CHEMBL5705899", "about": "(Biochem J, 2014)", "key": {"[1]": {"biological_target": "Glycogen synthase kinase-3 alpha (Homo sapiens) (UniProt P49840)", "assay": "Inhibition of human GSK3alpha at 1 uM using SUPT5 754-837 as substrate in presence of 33P-ATP by ProQinase assay"}, "[2]": {"biological_target": "Mitogen-activated protein kinase 10 (Homo sapiens) (UniProt P53779)", "assay": "Inhibition of recombinant human N-terminal GST/C-terminal His6-tagged JNK3 (40 to 422 residues) expressed in Escherichia coli assessed as remaining activity at 1 uM using ATF2 as substrate incubated for 30 mins in presence of [gamma-33P]ATP by filter binding method relative to control"}, "[3]": {"biological_target": "PI3K p110 beta/p85 alpha (Homo sapiens, UniProt P42338)", "assay": "Inhibition of human PIK3CB/PIK3R1 using PIP2/PS as substrate by ADP-Glo assay", "assay_type": "protein-complex assay"}, "[4]": {"biological_target": "Serine/threonine-protein kinase 25 (Homo sapiens) (UniProt O00506)", "assay": "Inhibition of human STK25 at 1 uM using casein as substrate in presence of 33P-ATP by ProQinase assay"}, "[5]": {"biological_target": "Mitogen-activated protein kinase 9 (Homo sapiens) (UniProt P45984)", "assay": "Inhibition of human JNK2 at 1 uM using ATF2 as substrate in presence of 33P-ATP by ProQinase assay"}, "[6]": {"biological_target": "Eukaryotic elongation factor 2 kinase (Homo sapiens) (UniProt O00418)", "assay": "Inhibition of human EEF2K at 1 uM using RBER-GSK3 as substrate in presence of 33P-ATP by ProQinase assay"}, "[7]": {"biological_target": "Tyrosine-protein kinase JAK1 (Homo sapiens) (UniProt P23458)", "assay": "Inhibition of human JAK1 at 1 uM using RBER-IRStide as substrate in presence of 33P-ATP by ProQinase assay"}, "[8]": {"biological_target": "Platelet-derived growth factor receptor beta (Homo sapiens) (UniProt P09619)", "assay": "Inhibition of human PDGFRbeta at 1 uM using poly(Ala,Glu,Lys,Tyr) as substrate in presence of 33P-ATP by ProQinase assay"}, "[9]": {"biological_target": "MAP/microtubule affinity-regulating kinase 4 (Homo sapiens) (UniProt Q96L34)", "sequence (Q96L34 whole entry)": "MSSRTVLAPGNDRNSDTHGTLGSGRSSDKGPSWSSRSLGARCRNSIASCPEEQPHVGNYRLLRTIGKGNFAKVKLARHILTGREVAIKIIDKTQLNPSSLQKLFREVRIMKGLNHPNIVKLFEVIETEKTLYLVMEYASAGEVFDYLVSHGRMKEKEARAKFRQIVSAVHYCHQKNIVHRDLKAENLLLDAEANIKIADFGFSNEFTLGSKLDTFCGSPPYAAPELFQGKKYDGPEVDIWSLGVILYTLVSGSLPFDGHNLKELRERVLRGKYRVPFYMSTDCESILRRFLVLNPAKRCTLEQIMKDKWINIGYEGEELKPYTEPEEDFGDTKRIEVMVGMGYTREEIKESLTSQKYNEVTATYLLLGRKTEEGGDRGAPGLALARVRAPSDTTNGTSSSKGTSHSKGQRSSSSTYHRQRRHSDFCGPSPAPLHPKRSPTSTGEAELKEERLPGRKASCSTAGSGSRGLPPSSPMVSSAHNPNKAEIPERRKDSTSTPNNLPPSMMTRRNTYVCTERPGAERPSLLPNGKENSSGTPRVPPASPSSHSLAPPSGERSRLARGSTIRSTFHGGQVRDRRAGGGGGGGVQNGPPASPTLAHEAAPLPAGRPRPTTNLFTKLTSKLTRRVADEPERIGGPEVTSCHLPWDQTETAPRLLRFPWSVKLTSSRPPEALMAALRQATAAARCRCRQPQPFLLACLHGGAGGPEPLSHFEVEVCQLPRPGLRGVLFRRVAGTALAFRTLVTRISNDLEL", "assay": "Inhibition of human MARK4 at 1 uM using RBER-CHKtide as substrate in presence of 33P-ATP by ProQinase assay"}, "[10]": {"biological_target": "MAP kinase-interacting serine/threonine-protein kinase 1 (Homo sapiens) (UniProt Q9BUB5)", "assay": "Inhibition of human MKNK1 at 1 uM using RB-S6P as substrate in presence of 33P-ATP by ProQinase assay"}, "[11]": {"biological_target": "NUAK family SNF1-like kinase 1 (Homo sapiens) (UniProt O60285)", "sequence (O60285 whole entry, the tested form may be a part)": "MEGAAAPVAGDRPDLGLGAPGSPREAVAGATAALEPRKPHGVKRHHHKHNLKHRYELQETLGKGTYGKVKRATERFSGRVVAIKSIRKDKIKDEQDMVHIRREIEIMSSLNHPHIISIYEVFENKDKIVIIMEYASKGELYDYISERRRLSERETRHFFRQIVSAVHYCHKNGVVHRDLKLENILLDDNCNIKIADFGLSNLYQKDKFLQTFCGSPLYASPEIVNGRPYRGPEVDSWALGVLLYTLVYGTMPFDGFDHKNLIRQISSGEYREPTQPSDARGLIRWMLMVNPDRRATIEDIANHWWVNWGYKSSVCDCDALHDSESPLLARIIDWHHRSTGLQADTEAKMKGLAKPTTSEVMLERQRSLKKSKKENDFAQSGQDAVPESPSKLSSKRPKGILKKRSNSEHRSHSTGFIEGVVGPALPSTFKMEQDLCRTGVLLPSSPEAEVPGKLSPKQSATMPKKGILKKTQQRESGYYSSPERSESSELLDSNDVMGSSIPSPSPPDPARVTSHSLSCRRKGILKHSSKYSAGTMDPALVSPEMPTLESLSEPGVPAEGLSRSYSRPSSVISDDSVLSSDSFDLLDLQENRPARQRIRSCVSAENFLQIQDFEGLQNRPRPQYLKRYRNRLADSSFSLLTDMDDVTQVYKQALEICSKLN", "assay": "(§1) Inhibition of recombinant human N-terminal His6-tagged NUAK1 (2 to 660 residues) expressed in baculovirus infected Sf21 cells assessed as remaining activity at 1 uM using ALNRTSSDSALHRRR as substrate incubated for 30 mins in presence of [gamma-33P]ATP by filter binding method relative to control"}, "[12]": {"test_system": "Ribosomal protein S6 kinase beta-1 (Homo sapiens), P23443 [T412E]", "assay": "Inhibition of recombinant human His6-tagged S6K1 T412E mutant (1 to 421 residues) expressed in baculovirus infected sf21 cells assessed as remaining activity at 1 uM using KKRNRTLTVas substrate incubated for 30 mins in presence of [gamma-33P]ATP by filter binding method relative to control"}, "[13]": {"biological_target": "Serine/threonine-protein kinase PAK 6 (Homo sapiens) (UniProt Q9NQU5)", "sequence (Q9NQU5 whole entry, looked up)": "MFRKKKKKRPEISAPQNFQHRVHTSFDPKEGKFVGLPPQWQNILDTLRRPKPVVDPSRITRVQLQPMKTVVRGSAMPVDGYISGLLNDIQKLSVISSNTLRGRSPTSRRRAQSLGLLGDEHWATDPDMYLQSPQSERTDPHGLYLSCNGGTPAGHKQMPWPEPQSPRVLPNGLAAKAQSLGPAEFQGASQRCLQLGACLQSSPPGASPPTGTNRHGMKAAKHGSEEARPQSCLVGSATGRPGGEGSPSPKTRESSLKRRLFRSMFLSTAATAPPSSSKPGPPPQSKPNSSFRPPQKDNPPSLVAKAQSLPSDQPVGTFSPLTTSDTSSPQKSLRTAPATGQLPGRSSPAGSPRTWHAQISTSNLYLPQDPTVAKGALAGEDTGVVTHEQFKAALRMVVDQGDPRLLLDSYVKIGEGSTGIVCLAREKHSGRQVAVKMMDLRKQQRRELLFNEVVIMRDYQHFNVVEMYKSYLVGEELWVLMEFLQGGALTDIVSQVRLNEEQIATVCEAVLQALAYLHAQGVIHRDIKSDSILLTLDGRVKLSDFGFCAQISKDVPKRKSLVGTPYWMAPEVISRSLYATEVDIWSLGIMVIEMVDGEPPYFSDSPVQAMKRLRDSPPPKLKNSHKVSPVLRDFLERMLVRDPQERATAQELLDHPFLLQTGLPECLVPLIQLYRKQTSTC", "assay": "Inhibition of human PAK6 at 1 uM using bio-4xCHKT as substrate in presence of 33P-ATP by ProQinase assay"}, "[14]": {"biological_target": "Serine/threonine-protein kinase 33 (Homo sapiens) (UniProt Q9BYT3)", "assay": "Inhibition of human STK33 at 1 uM using RBER-CHKtide as substrate in presence of 33P-ATP by ProQinase assay"}, "[15]": {"biological_target": "Serine/threonine-protein kinase WNK1 (Homo sapiens) (UniProt Q9H4A3)", "assay": "Inhibition of recombinant human WNK1 (1 to 661 residues) expressed in baculovirus infected Sf21 cells assessed as remaining activity at 1 uM using YLRRRLSDSNF as substrate incubated for 30 mins in presence of [gamma-33P]ATP by filter binding method relative to control"}, "[16]": {"biological_target": "LKB1-STRAD-MO25 complex (Homo sapiens) (UniProt Q15831+Q7RTN6+Q9Y376)", "assay": "as §1, with “LKB1 (1” for “NUAK1 (2”, “433 residues)/MO25 (1 to 341 residues)/STRAD (1 to 431” for “660”, “LSNLYHQGKFLQTFCGSPLYRRR” for “ALNRTSSDSALHRRR”"}, "[17]": {"biological_target": "Mitogen-activated protein kinase kinase kinase kinase 4 (Homo sapiens) (UniProt O95819)", "sequence (O95819 2-1239 limits assumed)": "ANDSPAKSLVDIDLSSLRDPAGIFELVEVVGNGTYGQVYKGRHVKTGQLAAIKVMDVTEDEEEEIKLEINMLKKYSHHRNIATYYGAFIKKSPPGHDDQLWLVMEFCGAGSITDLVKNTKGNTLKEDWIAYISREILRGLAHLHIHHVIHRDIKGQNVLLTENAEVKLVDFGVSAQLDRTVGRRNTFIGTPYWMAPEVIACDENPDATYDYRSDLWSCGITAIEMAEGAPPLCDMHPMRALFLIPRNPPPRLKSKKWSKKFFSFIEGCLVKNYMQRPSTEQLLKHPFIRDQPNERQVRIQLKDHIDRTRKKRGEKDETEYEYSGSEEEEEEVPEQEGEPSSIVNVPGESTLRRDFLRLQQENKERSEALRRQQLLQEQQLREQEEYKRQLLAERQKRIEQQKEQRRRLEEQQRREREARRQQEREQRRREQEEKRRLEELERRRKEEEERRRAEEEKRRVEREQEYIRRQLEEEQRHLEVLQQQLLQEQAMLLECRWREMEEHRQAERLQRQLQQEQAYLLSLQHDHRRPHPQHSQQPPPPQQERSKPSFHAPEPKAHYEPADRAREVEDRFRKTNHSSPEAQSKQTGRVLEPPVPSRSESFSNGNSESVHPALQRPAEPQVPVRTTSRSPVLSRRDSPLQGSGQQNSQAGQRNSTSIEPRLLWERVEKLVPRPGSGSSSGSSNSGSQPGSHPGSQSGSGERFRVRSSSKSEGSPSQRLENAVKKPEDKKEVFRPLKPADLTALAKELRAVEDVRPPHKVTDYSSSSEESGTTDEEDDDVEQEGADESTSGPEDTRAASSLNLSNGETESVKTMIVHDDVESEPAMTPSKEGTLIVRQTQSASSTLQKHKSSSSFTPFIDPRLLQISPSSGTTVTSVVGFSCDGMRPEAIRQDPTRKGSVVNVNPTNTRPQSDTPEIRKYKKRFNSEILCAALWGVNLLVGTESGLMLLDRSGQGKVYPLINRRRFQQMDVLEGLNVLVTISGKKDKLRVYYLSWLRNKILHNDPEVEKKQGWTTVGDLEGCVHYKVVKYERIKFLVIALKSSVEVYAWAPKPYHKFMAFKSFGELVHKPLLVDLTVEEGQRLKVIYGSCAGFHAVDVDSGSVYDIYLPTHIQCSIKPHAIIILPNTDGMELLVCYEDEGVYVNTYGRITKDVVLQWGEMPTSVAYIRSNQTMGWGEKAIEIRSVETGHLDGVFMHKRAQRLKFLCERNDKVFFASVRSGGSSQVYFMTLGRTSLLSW", "assay": "Inhibition of human MAP4K4 at 1 uM using casein as substrate in presence of 33P-ATP by ProQinase assay"}, "[18]": {"biological_target": "Phosphatidylinositol 4-phosphate 5-kinase type-1 gamma (Homo sapiens, UniProt O60331)", "assay": "Inhibition of human PIP5K1C using PI/PS as substrate by ADP-Glo assay"}, "[19]": {"biological_target": "T1, 3-phosphoinositide-dependent protein kinase 1 (Homo sapiens) (UniProt O15530)", "T1 sequence (whole entry)": "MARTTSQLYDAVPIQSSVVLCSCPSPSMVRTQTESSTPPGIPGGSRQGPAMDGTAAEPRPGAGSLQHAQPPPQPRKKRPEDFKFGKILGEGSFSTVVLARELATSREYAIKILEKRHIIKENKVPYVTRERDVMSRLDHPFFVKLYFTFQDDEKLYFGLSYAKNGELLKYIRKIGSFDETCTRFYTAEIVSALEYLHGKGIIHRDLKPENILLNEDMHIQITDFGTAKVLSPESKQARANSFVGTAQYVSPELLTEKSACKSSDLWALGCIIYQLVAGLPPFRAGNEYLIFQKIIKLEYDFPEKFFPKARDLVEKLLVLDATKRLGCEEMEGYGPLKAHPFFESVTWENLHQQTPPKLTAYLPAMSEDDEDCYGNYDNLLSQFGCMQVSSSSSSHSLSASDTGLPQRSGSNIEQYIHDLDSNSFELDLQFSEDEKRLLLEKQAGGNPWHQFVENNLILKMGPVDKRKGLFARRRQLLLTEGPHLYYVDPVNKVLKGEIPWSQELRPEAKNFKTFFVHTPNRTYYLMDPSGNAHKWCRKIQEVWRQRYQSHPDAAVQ", "assay": "Inhibition of human PDK1 at 1 uM using bio-4xCHKT as substrate in presence of 33P-ATP by ProQinase assay"}, "[20]": {"biological_target": "Receptor-interacting serine/threonine-protein kinase 2 (Homo sapiens) (UniProt O43353)", "sequence (O43353 whole entry)": "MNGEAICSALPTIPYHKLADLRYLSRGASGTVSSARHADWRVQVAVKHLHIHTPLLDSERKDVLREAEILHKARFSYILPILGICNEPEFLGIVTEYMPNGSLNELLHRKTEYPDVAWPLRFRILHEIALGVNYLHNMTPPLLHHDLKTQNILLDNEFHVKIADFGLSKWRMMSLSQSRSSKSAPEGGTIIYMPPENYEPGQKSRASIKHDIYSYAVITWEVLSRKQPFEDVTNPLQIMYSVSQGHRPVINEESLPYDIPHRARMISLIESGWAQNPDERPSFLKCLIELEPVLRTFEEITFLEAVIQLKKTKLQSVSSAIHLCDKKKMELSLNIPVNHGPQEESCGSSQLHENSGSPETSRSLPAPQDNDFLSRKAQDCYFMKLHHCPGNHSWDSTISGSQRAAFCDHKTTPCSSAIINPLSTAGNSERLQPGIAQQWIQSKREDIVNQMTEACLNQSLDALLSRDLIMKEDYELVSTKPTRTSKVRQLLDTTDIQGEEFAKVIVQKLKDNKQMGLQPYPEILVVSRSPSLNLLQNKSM", "assay": "Inhibition of human RIPK2 at 1 uM using RBER-CHKtide as substrate in presence of 33P-ATP by ProQinase assay"}, "[21]": {"biological_target": "Calcium/calmodulin-dependent protein kinase type II subunit beta (Homo sapiens) (UniProt Q13554)", "assay": "Inhibition of human CAMK2B at 1 uM using RBER-CHKtide as substrate in presence of 33P-ATP by ProQinase assay"}, "[22]": {"biological_target": "Ribosomal protein S6 kinase alpha-5 (Homo sapiens) (UniProt O75582)", "sequence (O75582 whole entry, looked up)": "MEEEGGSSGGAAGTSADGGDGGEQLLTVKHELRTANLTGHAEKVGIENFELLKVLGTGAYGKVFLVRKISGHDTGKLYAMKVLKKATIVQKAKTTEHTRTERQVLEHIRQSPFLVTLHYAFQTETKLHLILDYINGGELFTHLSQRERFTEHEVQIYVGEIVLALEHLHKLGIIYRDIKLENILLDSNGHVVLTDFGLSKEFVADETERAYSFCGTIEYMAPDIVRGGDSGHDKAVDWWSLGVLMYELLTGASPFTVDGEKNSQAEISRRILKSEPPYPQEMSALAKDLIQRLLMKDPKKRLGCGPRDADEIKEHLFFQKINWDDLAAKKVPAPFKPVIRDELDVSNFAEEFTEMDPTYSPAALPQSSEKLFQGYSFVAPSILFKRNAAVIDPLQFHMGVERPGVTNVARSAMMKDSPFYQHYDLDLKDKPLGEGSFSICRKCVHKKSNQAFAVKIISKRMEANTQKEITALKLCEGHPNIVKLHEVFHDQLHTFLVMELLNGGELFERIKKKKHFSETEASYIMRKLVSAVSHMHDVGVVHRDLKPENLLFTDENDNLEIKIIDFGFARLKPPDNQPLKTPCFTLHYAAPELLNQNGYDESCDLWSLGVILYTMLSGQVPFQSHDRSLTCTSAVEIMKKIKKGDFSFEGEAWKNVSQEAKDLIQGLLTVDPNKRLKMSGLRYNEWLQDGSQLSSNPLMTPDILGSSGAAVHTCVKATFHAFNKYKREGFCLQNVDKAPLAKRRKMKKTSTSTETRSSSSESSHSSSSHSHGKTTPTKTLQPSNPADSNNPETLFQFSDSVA", "conditions": "Sf21, dose 1.0 µM, time 30.0 min"}}, "note": "Calls of active or inactive are those of the source. No cut-off for these calls is given here.", "data": [{"smiles": "CC(C)(O)CNc1ncc(-c2ccnc(Nc3ccnc(Cl)c3)n2)c(CC2CC2)n1", "values": [{"measurement": "inhibition", "setting": "[1]", "value": "inactive"}, {"measurement": "Activity", "setting": "[2]", "value": 95, "unit": "%"}, {"measurement": "IC50", "setting": "[3]", "value": "> 10", "unit": "µM"}, {"measurement": "inhibition", "setting": "[4]", "value": "inactive"}, {"measurement": "inhibition", "setting": "[5]", "value": "inactive"}, {"measurement": "inhibition", "setting": "[6]", "value": "inactive"}, {"measurement": "inhibition", "setting": "[7]", "value": "inactive"}, {"measurement": "inhibition", "setting": "[8]", "value": "inactive"}, {"measurement": "inhibition", "setting": "[9]", "value": "inactive"}, {"measurement": "inhibition", "setting": "[10]", "value": "inactive"}, {"measurement": "Activity", "setting": "[11]", "value": 112, "unit": "%"}, {"measurement": "Activity", "setting": "[12]", "value": 116, "unit": "%"}, {"measurement": "inhibition", "setting": "[13]", "value": "inactive"}, {"measurement": "inhibition", "setting": "[14]", "value": "inactive"}, {"measurement": "Activity", "setting": "[15]", "value": 116, "unit": "%"}, {"measurement": "Activity", "setting": "[16]", "value": 106, "unit": "%"}, {"measurement": "inhibition", "setting": "[17]", "value": "inactive"}, {"measurement": "IC50", "setting": "[18]", "value": 3.37, "unit": "µM"}, {"measurement": "inhibition", "setting": "[19]", "value": "inactive"}, {"measurement": "inhibition", "setting": "[20]", "value": "inactive"}, {"measurement": "inhibition", "setting": "[21]", "value": "inactive"}, {"measurement": "Activity", "setting": "[22]", "value": 105, "unit": "%"}]}]}
